Experimental data reported in PMC2680961, “Homologous desensitization of signalling by the alpha (α) isoform of the human thromboxane A2 receptor: A specific role for nitric oxide signalling” (Biochimica et Biophysica Acta, 2007).
Residue numbers refer to the chain shown, from its start.

What was measured:
Assay type in all cases: cell-based
[1] = target: T1, TPα^S239A (Homo sapiens, UniProt P21731, S239A); assay: Intracellular calcium mobilization, HEK.TPα^S239A cells
T1 construct: expressed in transfected cells
T1 sequence (P21731 1-343 S239A): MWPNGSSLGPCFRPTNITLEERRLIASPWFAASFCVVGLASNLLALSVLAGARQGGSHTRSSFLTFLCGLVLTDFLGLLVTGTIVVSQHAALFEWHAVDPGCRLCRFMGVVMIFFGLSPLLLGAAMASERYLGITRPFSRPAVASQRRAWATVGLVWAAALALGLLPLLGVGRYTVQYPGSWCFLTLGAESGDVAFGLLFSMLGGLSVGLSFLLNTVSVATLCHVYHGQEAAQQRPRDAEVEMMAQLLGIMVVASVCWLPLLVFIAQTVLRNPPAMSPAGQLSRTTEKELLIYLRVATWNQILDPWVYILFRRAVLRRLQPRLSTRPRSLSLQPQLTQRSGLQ
Protocol: Measurement of intracellular calcium mobilization ([Ca^2+]i) in FURA2/AM preloaded HEK 293 cell lines (2 × 10^6 cells/dish), each transiently co-transfected with pADVA (10 μg), and pCMV:Gαq (25 μg), was carried out as previously described. To investigate the effect of GRK2/βARK1 on TP-mediated [Ca^2+]i mobilization, HEK.TPα or HEK.TPβ cells (2 × 10^6 cells/dish) were co-transfected with pADVA (10 μg), pCMV:Gαq (25 μg) along with pRK5:βARK1^495–689 (25 μg), encoding a dominant negative form of GRK2/βARK1[39]. Approximately 48 h post-transfection, cells were harvested by scraping, washed twice in ice-cold PBS and resuspended in HBSSHB (modified Ca^2+/Mg^2+-free Hank's buffered salt solution, containing […], pH 7.67, 0.1% bovine serum albumin (BSA)) buffer at 10^7 cells/ml and incubated in the dark with 5 μM FURA2/AM for 45 min at 37 °C. Cells were collected by centrifugation (900×g, 5 min), washed once in an equal volume of HBSSHB, and were finally resuspended in HBSSHB buffer at 10^7 cells/ml and kept at room temperature in the dark for 40 min. For each measurement of [Ca^2+]i mobilization, aliquots of cells were diluted to 0.825 × 10^6 cells/ml in HBSSHB, 1 mM CaCl2 and FURA2 fluorescence was recorded (2 ml aliquots of cells) at 37^ °C with gentle stirring with a Perkin Elmer-Cetus LS50-B spectrofluorometer at excitation wavelengths of 340 nm and 380 nm and emission wavelength of 510 nm, respectively.
Cells were stimulated with the TP agonist U46619 (1 μM) and changes in [Ca^2+]i mobilization were monitored as a function of time. To assess agonist-mediated homologous desensitization, cells (0.825 × 10^6 cells/ml; 2 ml per assay) were stimulated with 1 μM U46619 (Primary stimulation) or, as a control, with the vehicle for 4 min; thereafter, cells were collected by centrifugation (900×g, 5 min); were washed twice in 2 ml HBSSHB, 1 mM CaCl2; and finally resuspended in 2 ml HBSSHB,1 mM CaCl2 and were left to recover over various time intervals (ranging from 0 to 60 min); thereafter, cells re-stimulated with 1 μM U46619 (Secondary stimulation) and changes in [Ca^2+]i mobilization were monitored as a function of time. […]
The vehicle had no effect on U46619-mediated [Ca^2+]i mobilization. Calibration of the signal was performed in each sample by adding 0.2% Triton X-100 to obtain the maximal fluorescence ratio (Rmax) and then 1 mM EGTA to obtain the minimal fluorescence ratio (Rmin). […] Changes in [Ca^2+]i mobilization were determined by measuring peak rises in [Ca^2+]i mobilized (Δ[Ca^2+]i) and were calculated as mean changes in Δ[Ca^2+]i ± S.E.M. (nM).

[2] = target: T2, TPα^S340A (Homo sapiens, UniProt P21731, S340A); assay: Intracellular calcium mobilization, HEK.TPα^S340A cells
T2 construct: expressed in transfected cells
T2 sequence (P21731 1-343 S340A): T1 sequence (P21731 1-343 S239A) with A239S, S340A
Protocol: (§1) Measurement of intracellular calcium mobilization ([Ca^2+]i) in FURA2/AM preloaded HEK 293 cell lines (2 × 10^6 cells/dish), each transiently co-transfected with pADVA (10 μg), and pCMV:Gαq (25 μg), was carried out as previously described. To investigate the effect of GRK2/βARK1 on TP-mediated [Ca^2+]i mobilization, HEK.TPα or HEK.TPβ cells (2 × 10^6 cells/dish) were co-transfected with pADVA (10 μg), pCMV:Gαq (25 μg) along with pRK5:βARK1^495–689 (25 μg), encoding a dominant negative form of GRK2/βARK1[39]. […] For each measurement of [Ca^2+]i mobilization, aliquots of cells were diluted to 0.825 × 10^6 cells/ml in HBSSHB, 1 mM CaCl2 and FURA2 fluorescence was recorded (2 ml aliquots of cells) at 37^ °C with gentle stirring with a Perkin Elmer-Cetus LS50-B spectrofluorometer at excitation wavelengths of 340 nm and 380 nm and emission wavelength of 510 nm, respectively.
(§2) Cells were stimulated with the TP agonist U46619 (1 μM) and changes in [Ca^2+]i mobilization were monitored as a function of time. […]
(§3) The vehicle had no effect on U46619-mediated [Ca^2+]i mobilization. Calibration of the signal was performed in each sample by adding 0.2% Triton X-100 to obtain the maximal fluorescence ratio (Rmax) and then 1 mM EGTA to obtain the minimal fluorescence ratio (Rmin). […]

[3] = target: T3, TPα^T337,S340A (Homo sapiens, UniProt P21731, S340A/T337A); assay: Intracellular calcium mobilization, HEK.TPα^T337,S340A cells
T3 construct: expressed in transfected cells
T3 sequence (P21731 1-343 T337A/S340A): T1 sequence (P21731 1-343 S239A) with A239S, T337A, S340A
Protocol: as §1, §2, §3

[4] = secondary 1 μM U46619 at 15 min

Δ[Ca2+]i, U46619-induced ([1]; + GRK^DN, primary 1 μM U46619): 180 ± 9 nM
Δ[Ca2+]i, U46619-induced ([1]; + GRK^DN, secondary 1 μM U46619 at 15 min): 0 nM
Δ[Ca2+]i, U46619-induced ([1]; − GRK^DN, primary 1 μM U46619): 176 ± 10.3 nM
Δ[Ca2+]i, U46619-induced ([1]; − GRK^DN, secondary 1 μM U46619 at 15 min): 0 nM
Δ[Ca2+]i, U46619-induced ([2]; primary 1 μM U46619 4 min): 180 ± 6.1 nM
Δ[Ca2+]i, U46619-induced [2, 4]: 0 nM
Δ[Ca2+]i, U46619-induced ([3]; primary 1 μM U46619 4 min): 179 ± 11 nM
Δ[Ca2+]i, U46619-induced [3, 4]: 40 ± 3.4 nM
SMILES: CCCCC[C@H](O)/C=C/[C@@H]1[C@@H](C/C=C\CCCC(=O)O)[C@H]2CO[C@@H]1C2 [U46619]
